Measurements as given in patent US20120295907A1, “INSECTICIDAL COMPOUNDS” (SYNGENTA CROP PROTECTION, LLC, priority 2009, published 2012).

How the values were obtained:
Type in all cases: in vivo
Spodoptera littoralis = Spodoptera littoralis (Egyptian Cotton Leafworm) cotton leaf disc spray test; details: foliar, 72 h, 200 ppm spray on cotton leaf discs, L1 larvae, mortality, feeding behavior, growth regulation 3 DAT
Plutella xylostella = Plutella xylostella (Diamond Back Moth) artificial diet MTP test; details: 144 h, 200 ppm (concentration in well 18 ppm), L2 larvae, 6 days, larval mortality, growth regulation
Thrips tabaci = Thrips tabaci (Onion Thrips) sunflower leaf disc spray test; details: foliar, 168 h, 200 ppm spray on sunflower leaf discs, population of mixed ages, 7 days, mortality
Tetranychus urticae = Tetranychus urticae (Two-Spotted Spider Mite) bean leaf disc spray test; details: foliar, 192 h, 200 ppm spray on bean leaf discs, mite populations of mixed ages, 8 days, egg, larval and adult mortality, read-out: control of Tetranychus urticae
Heliothis virescens = Heliothis virescens (Tobacco Budworm) egg test on artificial diet; details: 96 h, 200 ppm (concentration in well 18 ppm), eggs 0-24 h old on artificial diet, 4 days, egg mortality, larval mortality, growth regulation
Diabrotica balteata = Diabrotica balteata (Corn Root Worm) artificial diet MTP test; details: 120 h, 200 ppm (concentration in well 18 ppm), L2 larvae, 5 days, larval mortality, growth regulation

Measured: pest or weed control at 200 ppm

CCc1cc(C(F)(C(F)(F)F)C(F)(F)C(F)(F)F)cc(C)c1NC(=O)c1cccc(NC(=O)c2cccc([N+](=O)[O-])c2C)c1OC (centres unmarked) [A2, N-[2-ethyl-4-(1,2,2,3,3,3-hexafluoro-1-trifluoromethylpropyl)-6-methylphenyl]-3-(2-methyl-3-nitrobenzoylamino)-2-methoxybenzamide]
≥ 80%: Spodoptera littoralis | Plutella xylostella | Thrips tabaci | Tetranychus urticae

COc1c(NC(=O)c2ccc(Br)c(C)c2)cccc1C(=O)Nc1c(Cl)cc(C(F)(C(F)(F)F)C(F)(F)C(F)(F)F)cc1Br (centres unmarked) [B65]
not listed: Diabrotica balteata
≥ 80%: all other assays above

COc1c(NC(=O)c2ccc([N+](=O)[O-])cc2F)cccc1C(=O)Nc1c(Cl)cc(C(F)(C(F)(F)F)C(F)(F)C(F)(F)F)cc1Br (centres unmarked) [B191]
not listed: Diabrotica balteata
≥ 80%: all other assays above

COc1c(NC(=O)c2ccc([N+](=O)[O-])c(C)c2)cccc1C(=O)Nc1c(Cl)cc(C(F)(C(F)(F)F)C(F)(F)C(F)(F)F)cc1Br (centres unmarked) [B190]
not listed: Diabrotica balteata
≥ 80%: all other assays above

COc1c(NC(=O)c2ccc(Cl)cc2Cl)cccc1C(=O)Nc1c(C)cc(C(F)(C(F)(F)F)C(F)(F)C(F)(F)F)cc1C (centres unmarked) [F15]
not listed: Thrips tabaci
≥ 80%: all other assays above

COc1c(NC(=O)c2ccc(C#N)cc2C)cccc1C(=O)Nc1c(C)cc(C(F)(C(F)(F)F)C(F)(F)F)cc1C [K4]
not listed: Thrips tabaci
≥ 80%: all other assays above

COc1c(NC(=O)c2c(F)cccc2F)cccc1C(=O)Nc1c(Cl)cc(C(F)(C(F)(F)F)C(F)(F)C(F)(F)F)cc1Br (centres unmarked) [B172]
not listed: Diabrotica balteata
≥ 80%: all other assays above

COc1c(NC(=O)c2ccc([N+](=O)[O-])c(Cl)c2)cccc1C(=O)Nc1c(Cl)cc(C(F)(C(F)(F)F)C(F)(F)C(F)(F)F)cc1Br (centres unmarked) [B170]
not listed: Thrips tabaci
≥ 80%: all other assays above

COc1c(NC(=O)c2c(C)cc(Br)cc2Cl)cccc1C(=O)Nc1c(Cl)cc(C(F)(C(F)(F)F)C(F)(F)C(F)(F)F)cc1Br (centres unmarked) [B159]
not listed: Thrips tabaci
≥ 80%: all other assays above

COc1c(NC(=O)c2ccc(C#N)cc2Cl)cccc1C(=O)Nc1c(Cl)cc(C(F)(C(F)(F)F)C(F)(F)F)cc1Br [G2]
not listed: Thrips tabaci
≥ 80%: all other assays above

COc1c(NC(=O)c2cccnc2F)cccc1C(=O)Nc1c(Cl)cc(C(F)(C(F)(F)F)C(F)(F)C(F)(F)F)cc1Br (centres unmarked) [B194]
not listed: Thrips tabaci
≥ 80%: all other assays above

COc1c(NC(=O)c2cc(F)c(C#N)cc2F)cccc1C(=O)Nc1c(Cl)cc(C(F)(C(F)(F)F)C(F)(F)F)cc1Cl [E24]
not listed: Thrips tabaci
≥ 80%: all other assays above

COc1c(NC(=O)c2c(Cl)cccc2Cl)cccc1C(=O)Nc1c(Cl)cc(C(F)(C(F)(F)F)C(F)(F)C(F)(F)F)cc1Br (centres unmarked) [B158]
not listed: Thrips tabaci
≥ 80%: all other assays above

COc1c(NC(=O)c2ccccc2F)cccc1C(=O)Nc1c(C)cc(C(F)(C(F)(F)F)C(F)(F)C(F)(F)F)cc1C (centres unmarked) [F1]
not listed: Thrips tabaci
≥ 80%: all other assays above

COc1c(NC(=O)c2sc(C)nc2C)cccc1C(=O)Nc1c(Cl)cc(C(F)(C(F)(F)F)C(F)(F)C(F)(F)F)cc1Br (centres unmarked) [B96]
not listed: Thrips tabaci
≥ 80%: all other assays above

COc1c(NC(=O)c2ccc([N+](=O)[O-])cc2C)cccc1C(=O)Nc1c(C)cc(C(F)(C(F)(F)F)C(F)(F)C(F)(F)F)cc1C (centres unmarked) [F24]
not listed: Thrips tabaci
≥ 80%: all other assays above

COc1c(NC(=O)c2ccc(C(F)(F)F)cc2)cccc1C(=O)Nc1c(Cl)cc(C(F)(C(F)(F)F)C(F)(F)C(F)(F)F)cc1Cl (centres unmarked) [C15]
not listed: Diabrotica balteata
≥ 80%: all other assays above

COc1c(NC(=O)c2c(F)cc(C#N)cc2F)cccc1C(=O)Nc1c(Cl)cc(C(F)(C(F)(F)F)C(F)(F)C(F)(F)F)cc1Br (centres unmarked) [B176]
not listed: Diabrotica balteata
≥ 80%: all other assays above

COc1c(NC(=O)c2c(F)cc(F)cc2F)cccc1C(=O)Nc1c(C)cc(C(F)(C(F)(F)F)C(F)(F)C(F)(F)F)cc1C (centres unmarked) [F25]
not listed: Thrips tabaci
≥ 80%: all other assays above

COc1c(NC(=O)c2ccc(C#N)cc2C)cccc1C(=O)Nc1c(Cl)cc(C(F)(C(F)(F)F)C(F)(F)F)cc1Br [G1]
not listed: Thrips tabaci
≥ 80%: all other assays above

COc1c(NC(=O)c2ccc([N+](=O)[O-])c(C(F)(F)F)c2)cccc1C(=O)Nc1c(Cl)cc(C(F)(C(F)(F)F)C(F)(F)C(F)(F)F)cc1Br (centres unmarked) [B179]
not listed: Thrips tabaci
≥ 80%: all other assays above

COc1c(NC(=O)c2ccc(C#N)cc2C)cccc1C(=O)Nc1c(Cl)cc(C(F)(C(F)(F)F)C(F)(F)C(F)(F)F)cc1Br (centres unmarked) [B1, N-[2-bromo-6-chloro-4-(1,2,2,3,3,3-hexafluoro-1-trifluoromethylpropyl)-phenyl]-3-(4-cyano-2-methylbenzoylamino)-2-methoxybenzamide]
not listed: Diabrotica balteata
≥ 80%: all other assays above

COc1c(NC(=O)c2ccc([N+](=O)[O-])o2)cccc1C(=O)Nc1c(Cl)cc(C(F)(C(F)(F)F)C(F)(F)C(F)(F)F)cc1Br (centres unmarked) [B61]
not listed: Thrips tabaci
≥ 80%: all other assays above

COc1c(NC(=O)c2ccc(S(C)(=O)=O)cc2)cccc1C(=O)Nc1c(C)cc(C(F)(C(F)(F)F)C(F)(F)C(F)(F)F)cc1C (centres unmarked) [F18]
not listed: Thrips tabaci
≥ 80%: all other assays above
